Data on twelve compounds can be found in patent publication US12539292B2, “BRM targeting compounds and associated methods of use” (Arvinas Operations, Inc., priority 2018, dated 2026).

For this assay, the target named is T1, BRM (Homo sapiens, UniProt P51531).
T1 construct: In-Cell Western Screen of BRM Degradation in SW1573 Cells; endogenous in cells; host or cells: SW1573
The assay can be described thus: In-cell Western screen of BRM degradation in SW1573 cells (Dmax and DC50). The format is cell-based. The method in brief: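 SW1573, overnight cpd exposure (18-20 h), 0.1% DMSO final. PFA fix, 0.5% Triton permeabilization, block; IR secondaries at 800/680 nm. Odyssey read → Dmax, DC50.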

[1] abbreviates: BRM degradation, SW1573 cells, read-out: DC50.
The mark [2] stands for this setting: BRM degradation, SW1573 cells, when tested at the top concentration of between 0.3 and 10 μM, read-out: Dmax (%) (% degraded).
The mark [3] stands for this setting: BRM degradation, SW1573 cells, read-out: Dmax (% degraded).
Setting [4] is: target protein degradation, read-out: BRM DC50.

Like-named read-outs stand apart in the source and are kept apart here.

T1 sequence (P51531 whole entry): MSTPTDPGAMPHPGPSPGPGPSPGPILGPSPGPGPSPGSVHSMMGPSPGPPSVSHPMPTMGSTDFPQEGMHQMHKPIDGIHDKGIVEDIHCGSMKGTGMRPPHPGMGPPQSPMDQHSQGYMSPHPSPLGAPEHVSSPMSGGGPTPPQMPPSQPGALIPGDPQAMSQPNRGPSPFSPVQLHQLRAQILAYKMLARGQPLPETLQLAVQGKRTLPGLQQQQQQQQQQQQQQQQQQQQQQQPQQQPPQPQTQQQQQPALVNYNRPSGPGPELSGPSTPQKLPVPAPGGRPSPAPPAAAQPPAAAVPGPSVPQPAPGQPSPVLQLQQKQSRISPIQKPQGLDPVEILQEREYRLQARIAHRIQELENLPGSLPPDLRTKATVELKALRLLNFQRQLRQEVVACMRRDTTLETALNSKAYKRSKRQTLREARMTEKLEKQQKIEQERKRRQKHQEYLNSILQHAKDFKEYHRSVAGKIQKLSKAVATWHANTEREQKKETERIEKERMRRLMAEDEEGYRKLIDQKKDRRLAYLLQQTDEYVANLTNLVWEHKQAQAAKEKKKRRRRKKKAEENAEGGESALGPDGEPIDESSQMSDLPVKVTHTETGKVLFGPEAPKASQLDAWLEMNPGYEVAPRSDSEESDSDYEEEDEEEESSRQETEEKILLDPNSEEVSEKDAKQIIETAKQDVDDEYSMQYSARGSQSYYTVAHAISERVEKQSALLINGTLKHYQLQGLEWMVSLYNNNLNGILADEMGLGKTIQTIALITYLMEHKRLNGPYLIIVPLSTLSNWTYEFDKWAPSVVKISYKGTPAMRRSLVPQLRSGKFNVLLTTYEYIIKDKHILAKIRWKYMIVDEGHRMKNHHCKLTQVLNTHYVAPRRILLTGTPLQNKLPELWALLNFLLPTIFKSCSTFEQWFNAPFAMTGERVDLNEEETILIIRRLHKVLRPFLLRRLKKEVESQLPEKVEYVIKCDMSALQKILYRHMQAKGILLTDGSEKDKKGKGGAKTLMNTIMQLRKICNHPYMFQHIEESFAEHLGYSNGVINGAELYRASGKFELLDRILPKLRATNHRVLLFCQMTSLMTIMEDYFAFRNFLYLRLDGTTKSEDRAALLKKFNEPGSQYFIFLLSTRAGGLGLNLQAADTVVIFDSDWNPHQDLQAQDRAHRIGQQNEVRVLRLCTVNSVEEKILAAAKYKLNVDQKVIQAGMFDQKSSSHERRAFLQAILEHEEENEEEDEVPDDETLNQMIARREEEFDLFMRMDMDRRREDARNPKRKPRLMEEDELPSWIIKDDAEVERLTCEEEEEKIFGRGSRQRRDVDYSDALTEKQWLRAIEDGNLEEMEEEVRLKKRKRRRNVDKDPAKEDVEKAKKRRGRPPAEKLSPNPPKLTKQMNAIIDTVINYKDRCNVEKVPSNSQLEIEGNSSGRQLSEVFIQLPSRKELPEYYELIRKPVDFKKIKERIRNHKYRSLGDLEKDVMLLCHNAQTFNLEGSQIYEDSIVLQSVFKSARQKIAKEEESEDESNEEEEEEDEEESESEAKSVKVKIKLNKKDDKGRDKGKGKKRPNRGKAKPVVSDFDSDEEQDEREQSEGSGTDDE

What is called DC50 is the concentration giving 50% degradation. The term Dmax denotes the largest share of the target that was removed. Consider `Cc1ncsc1-c1ccc([C@H](C)NC(=O)[C@@H]2C[C@@H](O)CN2C(=O)[C@@H](c2cc(OCCN3C[C@@H]4C[C@H]3CN4CCOc3cc(N4C5CCC4CN(c4cc(-c6ccccc6O)nnc4N)C5)ccn3)no2)C(C)C)cc1` [compound 135, (2S,4R)-1-((2R)-2-(3-(2-((1S,4S)-5-(2-((4-(3-(3-amino-6-(2-hydroxyphenyl)pyridazin-4-yl)-3,8-diazabicyclo[3.2.1]octan-8-yl)pyridin-2-yl)oxy)ethyl)-2,5-diazabicyclo[2.2.1]heptan-2-yl)ethoxy)isoxazol-5-yl)-3-methylbutanoyl)-4-hydroxy-N-((S)-1-(4-(4-methylthiazol-5-yl)phenyl)ethyl)pyrrolidine-2-carboxamide], for which the DC50 under setting [1] is less than 0.0025 µM. In addition, the Dmax under setting [2] is more than 75%.

Turning to `Cc1ncsc1-c1ccc([C@H](C)NC(=O)[C@@H]2C[C@@H](O)CN2C(=O)[C@@H](c2cc(OCCC3CCN(C[C@H]4C[C@H](C#CC(C)n5cc(-c6cc(-c7ccccc7O)nnc6N)cn5)C4)CC3)no2)C(C)C)cc1` (stereo partly drawn) [compound 632, (2S,4R)-1-((2S)-2-(3-(2-(1-(((1r,3S)-3-(3-(4-(3-amino-6-(2-hydroxyphenyl)pyridazin-4-yl)-1H-pyrazol-1-yl)but-1-yn-1-yl)cyclobutyl)methyl)piperidin-4-yl)ethoxy)isoxazol-5-yl)-3-methylbutanoyl)-4-hydroxy-N-((S)-1-(4-(4-methylthiazol-5-yl)phenyl)ethyl)pyrrolidine-2-carboxamide], the DC50 under setting [1] was less than 0.0025 µM. In addition, the Dmax under setting [3] is more than 75%.

For `Cc1ncsc1-c1ccc([C@H](C)NC(=O)[C@@H]2C[C@@H](O)CN2C(=O)[C@H](c2cc(OCC#Cc3ccc(O[C@H]4C[C@H](Oc5cc(N6C7CCC6CN(c6cc(-c8ccccc8O)nnc6N)C7)ccn5)C4)cn3)no2)C(C)C)cc1` [compound 69, (2S,4R)-1-((2S)-2-(3-((3-(5-((1r,3S)-3-((4-(3-(3-amino-6-(2-hydroxyphenyl)pyridazin-4-yl)-3,8-diazabicyclo[3.2.1]octan-8-yl)pyridin-2-yl)oxy)cyclobutoxy)pyridin-2-yl)prop-2-yn-1-yl)oxy)isoxazol-5-yl)-3-methylbutanoyl)-4-hydroxy-N-((S)-1-(4-(4-methylthiazol-5-yl)phenyl)ethyl)pyrrolidine-2-carboxamide], the DC50 under setting [1] was 0.01 to 0.03 µM. The Dmax under setting [2] is more than 75%.

As for `Cc1ncsc1-c1cc(F)c([C@H](C)NC(=O)[C@@H]2C[C@@H](O)CN2C(=O)[C@@H](c2cc(N3CCC(CN4CCC(O[C@H]5C[C@H](Oc6cc(N7C8CCC7CN(c7cc(-c9ccccc9O)nnc7N)C8)ccn6)C5)CC4)CC3)no2)C(C)C)cc1F` [compound 681, (2S,4R)-1-((2R)-2-(3-(4-((4-((1r,3r)-3-((4-(3-(3-amino-6-(2-hydroxyphenyl)pyridazin-4-yl)-3,8-diazabicyclo[3.2.1]octan-8-yl)pyridin-2-yl)oxy)cyclobutoxy)piperidin-1-yl)methyl)piperidin-1-yl)isoxazol-5-yl)-3-methylbutanoyl)-N-((S)-1-(2,5-difluoro-4-(4-methylthiazol-5-yl)phenyl)ethyl)-4-hydroxypyrrolidine-2-carboxamide], the DC50 under setting [1] is less than 0.0025 µM. Under setting [3], the Dmax is more than 75%.

For `Cc1ncsc1-c1ccc([C@H](C)NC(=O)[C@@H]2C[C@@H](O)CN2C(=O)[C@@H](c2cc(OCCN3CCC(O[C@H]4C[C@H](Oc5cccc(N6C7CCC6CN(c6cc(-c8ccccc8O)nnc6N)C7)c5)C4)CC3)no2)C(C)C)cc1` [compound 462, (2S,4R)-1-((2R)-2-(3-(2-(4-((1r,3R)-3-(3-(3-(3-amino-6-(2-hydroxyphenyl)pyridazin-4-yl)-3,8-diazabicyclo[3.2.1]octan-8-yl)phenoxy)cyclobutoxy)piperidin-1-yl)ethoxy)isoxazol-5-yl)-3-methylbutanoyl)-4-hydroxy-N-((S)-1-(4-(4-methylthiazol-5-yl)phenyl)ethyl)pyrrolidine-2-carboxamide], the Dmax (SW1573, % degraded, when tested at the top concentration of between 0.3 and 10 μM, read-out: BRM Dmax (%)) is more than 75%. Also, under setting [4], the DC50 is less than 0.0025 µM.

On to `Cc1ncsc1-c1ccc([C@H](C)NC(=O)[C@@H]2C[C@@H](O)CN2C(=O)[C@H](c2cc(N3CCC(F)(CN4CCC(O[C@H]5C[C@H](Oc6cc(N7C8CCC7CN(c7cc(-c9ccccc9O)nnc7N)C8)ccn6)C5)CC4)CC3)no2)C(C)C)cc1` [compound 682, (2S,4R)-1-((2S)-2-(3-(4-((4-((1r,3r)-3-((4-(3-(3-amino-6-(2-hydroxyphenyl)pyridazin-4-yl)-3,8-diazabicyclo[3.2.1]octan-8-yl)pyridin-2-yl)oxy)cyclobutoxy)piperidin-1-yl)methyl)-4-fluoropiperidin-1-yl)isoxazol-5-yl)-3-methylbutanoyl)-4-hydroxy-N-((S)-1-(4-(4-methylthiazol-5-yl)phenyl)ethyl)pyrrolidine-2-carboxamide], for which the DC50 under setting [1] is 0.0025 to 0.01 µM. Further, the Dmax under setting [3] was more than 75%.

For `Cc1cc([C@@H](C(=O)N2C[C@H](O)C[C@H]2C(=O)N[C@H](COCCOCCNc2ccc(-c3ccccc3O)nn2)c2ccc(-c3scnc3C)cc2)C(C)C)on1` [compound 523, (2S,4R)-4-hydroxy-N-((S)-2-(2-(2-((6-(2-hydroxyphenyl)pyridazin-3-yl)amino)ethoxy)ethoxy)-1-(4-(4-methylthiazol-5-yl)phenyl)ethyl)-1-((S)-3-methyl-2-(3-methylisoxazol-5-yl)butanoyl)pyrrolidine-2-carboxamide], the DC50 (BRM degradation, read-out: BRM DC50) was more than 0.03 µM.

Take `Cc1ncsc1-c1ccc([C@H](C)NC(=O)[C@@H]2C[C@@H](O)CN2C(=O)[C@H](c2cc(OCCN3CCC(O[C@H]4C[C@H](Oc5cnnc(N6C7CCC6CN(c6cc(-c8ccccc8O)nnc6N)C7)c5)C4)CC3)no2)C(C)C)cc1` [compound 470, (2S,4R)-1-((2S)-2-(3-(2-(4-((1r,3S)-3-((6-(3-(3-amino-6-(2-hydroxyphenyl)pyridazin-4-yl)-3,8-diazabicyclo[3.2.1]octan-8-yl)pyridazin-4-yl)oxy)cyclobutoxy)piperidin-1-yl)ethoxy)isoxazol-5-yl)-3-methylbutanoyl)-4-hydroxy-N-((S)-1-(4-(4-methylthiazol-5-yl)phenyl)ethyl)pyrrolidine-2-carboxamide]: the DC50 under setting [4] was more than 0.03 µM.

In the case of `Cc1ncsc1-c1ccc([C@H](C)NC(=O)[C@@H]2C[C@@H](O)CN2C(=O)[C@H](c2cc(OCC(=O)N3CCC(O[C@H]4C[C@H](Oc5cc(N6C7CCC6CN(c6cc(-c8ccccc8O)nnc6N)C7)ccn5)C4)CC3)no2)C(C)C)cn1` [compound 271, (2S,4R)-1-((2S)-2-(3-(2-(4-((1r,3S)-3-((4-(3-(3-amino-6-(2-hydroxyphenyl)pyridazin-4-yl)-3,8-diazabicyclo[3.2.1]octan-8-yl)pyridin-2-yl)oxy)cyclobutoxy)piperidin-1-yl)-2-oxoethoxy)isoxazol-5-yl)-3-methylbutanoyl)-4-hydroxy-N-((S)-1-(6-(4-methylthiazol-5-yl)pyridin-3-yl)ethyl)pyrrolidine-2-carboxamide], the DC50 under setting [1] is more than 0.03 µM.

With `Cc1ncsc1-c1ccc([C@H](C)NC(=O)[C@@H]2C[C@@H](O)CN2C(=O)[C@H](c2cc(OCC[C@H]3CC[C@H](O[C@H]4C[C@H](Oc5cc(N6C7CCC6CN(c6cc(-c8ccccc8O)nnc6N)C7)ccn5)C4)CC3)no2)C(C)C)cc1` [compound 487, (2S,4R)-1-((2S)-2-(3-(2-((1R,4S)-4-((1r,3S)-3-((4-(3-(3-amino-6-(2-hydroxyphenyl)pyridazin-4-yl)-3,8-diazabicyclo[3.2.1]octan-8-yl)pyridin-2-yl)oxy)cyclobutoxy)cyclohexyl)ethoxy)isoxazol-5-yl)-3-methylbutanoyl)-4-hydroxy-N-((S)-1-(4-(4-methylthiazol-5-yl)phenyl)ethyl)pyrrolidine-2-carboxamide], the DC50 under setting [4] was more than 0.03 µM.

In the case of `Cc1ncsc1-c1ccc([C@H](C)NC(=O)[C@@H]2C[C@@H](O)CN2C(=O)[C@@H](c2cc(N3CCC(CN4CCC(Oc5cc(N6C7CCC6CN(c6cc(-c8ccccc8O)nnc6N)C7)ccn5)CC4)CC3)no2)C(C)C)cc1` [compound 602, (2S,4R)-1-((2R)-2-(3-(4-((4-((4-(3-(3-amino-6-(2-hydroxyphenyl)pyridazin-4-yl)-3,8-diazabicyclo[3.2.1]octan-8-yl)pyridin-2-yl)oxy)piperidin-1-yl)methyl)piperidin-1-yl)isoxazol-5-yl)-3-methylbutanoyl)-4-hydroxy-N-((S)-1-(4-(4-methylthiazol-5-yl)phenyl)ethyl)pyrrolidine-2-carboxamide], the Dmax (BRM degradation, SW1573 cells, Table 2D, read-out: **Dmax (%) (% degraded)) was more than 75%. Further, the DC50 (BRM degradation, SW1573 cells, Table 2D, read-out: *DC50) is less than 0.0025 µM.

Turning to `Cc1nccn1-c1ccc([C@H](C)NC(=O)[C@@H]2C[C@@H](O)CN2C(=O)[C@H](c2cc(OCCN3CCC(O[C@H]4C[C@H](Oc5cc(N6C7CCC6CN(c6cc(-c8ccccc8O)nnc6N)C7)ccn5)C4)CC3)no2)C(C)C)cn1` [compound 397, (2S,4R)-1-((2S)-2-(3-(2-(4-((1r,3S)-3-((4-(3-(3-amino-6-(2-hydroxyphenyl)pyridazin-4-yl)-3,8-diazabicyclo[3.2.1]octan-8-yl)pyridin-2-yl)oxy)cyclobutoxy)piperidin-1-yl)cthoxy)isoxazol-5-yl)-3-methylbutanoyl)-4-hydroxy-N-((S)-1-(6-(2-methyl-1H-imidazol-1-yl)pyridin-3-yl)ethyl)pyrrolidine-2-carboxamide], the DC50 under setting [4] is more than 0.03 µM.
